Here are results for 20 compounds from patent EP4227307A1 (Genzyme Corporation, priority 2022, dated 2023).

Counter-ions that a name gives are not always drawn.

This assay concerns the target T1, human recombinant 6His-Nterm SHP2 full-length (Thr2-Arg593) (Homo sapiens, UniProt Q06124).
T1 construct: 6His-Nterm SHP2 full-length (Thr2-Arg593, R&D system); 6His (N); purchased R&D system
T1 sequence (Q06124 2-593): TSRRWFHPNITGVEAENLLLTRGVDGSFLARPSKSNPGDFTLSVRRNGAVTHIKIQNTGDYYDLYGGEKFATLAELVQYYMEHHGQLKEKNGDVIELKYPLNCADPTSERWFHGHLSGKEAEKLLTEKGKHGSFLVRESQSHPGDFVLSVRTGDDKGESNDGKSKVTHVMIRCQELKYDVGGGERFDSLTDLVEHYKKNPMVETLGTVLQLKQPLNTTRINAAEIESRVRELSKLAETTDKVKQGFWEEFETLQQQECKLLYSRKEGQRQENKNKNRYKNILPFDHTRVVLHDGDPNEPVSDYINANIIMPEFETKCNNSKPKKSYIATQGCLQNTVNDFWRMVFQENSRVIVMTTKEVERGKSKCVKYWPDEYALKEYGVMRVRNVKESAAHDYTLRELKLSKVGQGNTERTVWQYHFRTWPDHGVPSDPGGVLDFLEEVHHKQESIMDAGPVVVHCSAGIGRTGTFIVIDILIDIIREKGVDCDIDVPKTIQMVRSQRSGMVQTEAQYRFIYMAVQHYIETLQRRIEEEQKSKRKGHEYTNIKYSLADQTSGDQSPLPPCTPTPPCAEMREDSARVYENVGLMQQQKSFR
The assay can be described thus: SHP2 Phosphatase Assay (DiFMUP fluorescence). The assay is classed as biochemical. Particulars: SHP2 0.2 nM pre-incubated with 100 nM bi-phosphorylated activating peptide; compound 1000-0.05 nM, 30 min pre-incubation; DiFMUP 20 µM, 45 min, room temperature; 10-concentration dose-response. A digest of the protocol: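 SHP2 (0.2 nM) preactivated ≥10 min with 100 nM bis-phosphorylated peptide, then 30 min with compound (10 concentrations, 1000–0.05 nM) at room temperature, pH 7.2 HEPES buffer with DTT. DiFMUP (20 µM, added solution) reacted 45 min, pervanadate-stopped; fluorescence 350/450 nm. IC50 by 4-parameter logistic fit.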
With `Cc1nn(C)cc1-c1c(C)nc(N2CCC3(CC2)Cc2ncccc2[C@H]3N)c2ccnn12` [Compound 47, (5S)-1'-[7-(1,3-dimethylpyrazol-4-yl)-6-methyl-pyrazolo[1,5-a]pyrazin-4-yl]spiro [5,7-dihydrocyclopenta[b]pyridine-6,4'-piperidine]-5-amine], the concentration for half-maximal inhibition (IC50) turned out to be 154 nM.

Turning to `COc1ccc2c(c1)[C@@H](N)C1(CCN(c3nc(C)c(-c4cnn(C)c4Cl)n4nccc34)CC1)C2` [Compound 126, (1S)-1'-[7-(5-chloro-1-methyl-pyrazol-4-yl)-6-methyl-pyrazolo[1,5-a]pyrazin-4-yl] -6-methoxy-spiro[indane-2,4'-piperidine]-1-amine hydrochloride], the half-maximal inhibitory concentration (IC50) was 4 nM.

Take `Cc1nccc(-c2c(C)nc(N3CCC4(CC3)Cc3ccc(F)cc3[C@H]4N)c3ccnn23)c1Cl` [Compound 91, (1S)-1'-[7-(3-chloro-2-methyl-4-pyridyl)-6-methyl-pyrazolo[1,5-a]pyrazin-4-yl]-6-fluoro-spiro[indane-2,4'-piperidine]-1-amine hydrochloride]: the IC50 was 19 nM.

Consider `Cc1nc(N2CCC3(CC2)Cc2cc(F)c(F)cc2[C@H]3N)c2ccnn2c1-c1cnn(C)c1C` [Compound 80, (1S)-1'-[7-(1,5-dimethylpyrazol-4-yl)-6-methyl-pyrazolo[1,5-a]pyrazin-4-yl]-5,6-difluoro-spiro [indane-2,4'-piperidine]-1-amine hydrochloride], for which the IC50 amounted to 17 nM.

Take `Cc1nc(N2CCC3(CC2)Cc2ncccc2[C@H]3N)c2ccnn2c1-c1ccc2c(c1)OCCO2` [Compound 183, (5S)-1'-[7-(2,3-dihydro-1,4-benzodioxin-6-yl)-6-methyl-pyrazolo[1,5-a]pyrazin-4-yl]spiro[5,7-dihydrocyclopenta[b]pyridine-6,4'-piperidine]-5-amine]: the IC50 was 3 nM.

For the compound `Cc1nn(C)c(C)c1-c1c(C)nc(N2CCC3(CC2)Cc2ncccc2[C@H]3N)c2ccnn12` [Compound 33, (5S)-1'-[6-methyl-7-(1,3,5-trimethylpyrazol-4-yl)pyrazolo[1,5-a]pyrazin-4-yl]spiro[5,7-dihydrocyclopenta[b]pyridine-6,4'-piperidine]-5-amine], the IC50 is > 1000 nM.

With `Cc1nc(N2CCC3(CC2)Nc2ccccc2[C@H]3N)c2ccnn2c1-c1ccccc1F` [Compound 153, (3R)-1'-[7-(2-fluorophenyl)-6-methyl-pyrazolo[1,5-a]pyrazin-4-yl]spiro[indoline-2,4'-piperidine]-3-amine hydrochloride], the IC50 was 15 nM.

Regarding `COc1nc2c(s1)[C@@H](N)C1(CCN(c3nc(C)c(-c4ccnc(C)c4Cl)n4nccc34)CC1)C2` [Compound 219, (6S)-1'-[7-(3-chloro-2-methyl-4-pyridyl)-6-methyl-pyrazolo[1,5-a]pyrazin-4-yl]-2-methoxy-spiro[4,6-dihydrocyclopenta[d]thiazole-5,4'-piperidine]-6-amine], the half-inhibitory concentration (IC50) worked out at 5 nM.

Consider `Cc1nc(N2CCC3(CC2)Oc2ncccc2[C@H]3N)c2ccnn2c1-c1ccc(F)c2cc[nH]c12` [Compound 16, (3R)-1'-[7-(4-fluoro-1H-indol-7-yl)-6-methyl-pyrazolo[1,5-a]pyrazin-4-yl]spiro[3H-furo[2,3-b]pyridine-2,4'-piperidine]-3-amine], for which the IC50 amounted to 42 nM.

Consider `Cc1nccc(-c2c(C)nc(N3CCC4(CC3)Cc3ncsc3[C@H]4N)c3ccnn23)c1Cl` [Compound 73, (6S)-1'-[7-(3-chloro-2-methyl-4-pyridyl)-6-methyl-pyrazolo[1,5-a]pyrazin-4-yl]spiro[4,6-dihydrocyclopenta[d]thiazole-5,4'-piperidine]-6-amine hydrochloride], for which the IC50 is 5 nM.

For `COc1cccc(-c2c(C)nc(N3CCC4(CC3)Cc3ncccc3[C@H]4N)c3ccnn23)c1Cl` [Compound 3, (5S)-1'-(7-(2-chloro-3-methoxyphenyl)-6-methylpyrazolo[1,5-a]pyrazin-4-yl)-5,7-dihydrospiro [cyclopenta[b]pyridine-6,4'-piperidin] -5-amine hydrochloride], the IC50 was 3 nM.

`Cc1nc(N2CCC3(CC2)Cc2ncccc2[C@H]3N)c2ccnn2c1-c1ccc2nccnc2c1` [Compound 27, (5S)-1'-(6-methyl-7-quinoxalin-6-yl-pyrazolo[1,5-a]pyrazin-4-yl)spiro[5,7-dihydrocyclopenta[b]pyridine-6,4'-piperidine]-5-amine hydrochloride]: the half-inhibitory concentration (IC50) was determined as 16 nM.

Take `Cc1nc(N2CCC3(CC2)Cc2ncccc2[C@H]3N)c2ccnn2c1-c1ccc2ccn(C)c2c1` [Compound 184, (5S)-1'-[6-methyl-7-(1-methylindol-6-yl)pyrazolo[1,5-a]pyrazin-4-yl]spiro[5,7-dihydrocyclopenta[b]pyridine-6,4'-piperidine]-5-amine]: the IC50 worked out at 11 nM.

Regarding `Cc1nc(N2CCC3(CC2)Cc2ncccc2[C@H]3N)c2ccnn2c1-c1c(F)cccc1F` [Compound 115, (5S)-1'-[7-(2,6-difluorophenyl)-6-methyl-pyrazolo[1,5-a]pyrazin-4-yl]spiro[5,7-dihydrocyclopenta[b]pyridine-6,4'-piperidine]-5-amine], the 50% inhibitory concentration (IC50) stood at 11 nM.

As to `COc1ccc2c(c1)[C@@H](N)C1(CCN(c3nc(C)c(-c4cc(C)nn4C)n4nccc34)CC1)C2` [Compound 123, (1S)-1'-[7-(2,5-dimethylpyrazol-3-yl)-6-methyl-pyrazolo[1,5-a]pyrazin-4-yl]-6-methoxy-spiro[indane-2,4'-piperidine]-1-amine hydrochloride], the IC50 came out at 9 nM.

Take `Cc1nccc(-c2c(C)nc(N3CCC4(CC3)Cc3ccccc3[C@H]4N)c3ccnn23)c1F` [Compound 151, (1S)-1'-[7-(3-fluoro-2-methyl-4-pyridyl)-6-methyl-pyrazolo [1 ,5-a]pyrazin-4-yl]spiro[indane-2,4'-piperidine]-1-amine]: the IC50 is 9 nM.

On to `CCn1cc(-c2c(C)nc(N3CCC4(CC3)Cc3cc(OC)ccc3[C@H]4N)c3ccnn23)cn1` [Compound 148, (1S)-1'-[7-(1-ethylpyrazol-4-yl)-6-methyl-pyrazolo[1,5-a]pyrazin-4-yl]-5-methoxy-spiro[indane-2,4'-piperidine]-1-amine], for which the half-maximal inhibitory concentration (IC50) was found to be 9 nM.

For the compound `Cc1nc(N2CCC3(CC2)Cc2ncccc2[C@H]3N)c2ccnn2c1Sc1cccnc1C(F)(F)F` [Compound 230, (5S)-1'-(6-methyl-7-((2-(trifluoromethyl)pyridin-3-yl)thio)pyrazolo[1,5-a]pyrazin-4-yl)-5,7-dihydrospiro[cyclopenta[b]pyridine-6,4'-piperidin]-5-amine], the IC50 is 15 nM.

On to `Cc1nc(N2CCC3(CC2)Cc2ncccc2[C@H]3N)c2ccnn2c1-c1ccc2ncccc2c1` [Compound 202, (5S)-1'-[6-methyl-7-(6-quinolyl)pyrazolo[1,5-a]pyrazin-4-yl]spiro[5,7-dihydrocyclopenta[b]pyridine-6,4'-piperidine]-5-amine], for which the half-inhibitory concentration (IC50) was 26 nM.

In the case of `Cc1nc(N2CCC3(CC2)Cc2ncccc2[C@H]3N)c2ccnn2c1-c1ccc(C#N)s1` [Compound 190, 5-[6-methyl-4-[(5S)-5-aminospiro[5,7-dihydrocyclopenta[b]pyridine-6,4'-piperidine]-1'-yl]pyrazolo[1,5-a]pyrazin-7-yl]thiophene-2-carbonitrile], the IC50 stood at 31 nM.
